Data on 1 compound can be found in patent US20200223826A1, “Glucose-6-Phosphate Dehydrogenase (G6PD)-Modulating Agents And Methods Of Treating G6PD Deficiency” (The Board of Trustees of the Leland Stanford Junior …, priority 2017, published 2020).

For one assay, the system named is zebrafish embryos. The experiment in a line: Pericardial edema in zebrafish embryos. In kind it is in vivo. How it is done:
Embryos were dechorinated with pronase at 24 hours post fertilization (hpf) and treated with 50 μg/ml of chloroquine and/or AG1 by directly adding the compounds to the well. For ROS measurements, embryos were incubated with compounds for 2 hours, and then the ROS detecting reagent (CM-H2DCFDA) was added at a final concentration of 500 ng/ml to the well for a total treatment time of 5 hours. One embryo was placed to each well of a black, opaque 96-well plate. The florescence was analyzed with excitation/emission at 485/525 nm. After ROS assays, embryos at about 32 hpf were pooled and lysed in buffer containing 50 mM Tris (pH 7.4), 150 mM NaCl, 1 mM EDTA, 0.1% NP-40, and protease inhibitor cocktail, which was followed by three cycles of freeze and thawing in liquid nitrogen. The lysate was centrifuged at 14,000 rpm at 4° C. for 15 minutes. Total protein concentration in the supernatants (total lysate) was determined by Bradford method. 50 μg of total lysate was loaded onto 10% SDS-PAGE gels and the protein level was examined by Western blot using anti-G6PD antibody (Abcam (G6PD: AB87230)). 10 μg of total lysate was used for enzymatic assay. 50 μg of the lysate was used to measure NADPH levels using a NADPH quantification kit (Biovision), according to the manufacturer's instructions.
Live embryos were anesthetized and mounted in 3% methylcellulose. Embryos were imaged with a Leica M205FA microscope equipped with a 1.0× Plan Apochromatic objective and a SPOT Flex camera or a Leica DM4500B compound microscope equipped with a QImaging Retiga-SRV camera. For hemoglobin staining, fixed embryos were stained with o-dianisidine as previously reported (10), cleared, mounted in 100% glycerol, and imaged with a Leica M205FA microscope equipped with a 1.0× Plan Apochromatic objective and a SPOT Flex camera. All images were captured using SPOT or MetaMorph imaging software (Diagnostic Imaging Inc.) and processed in Photoshop (Adobe). Adjustments were limited to brightness levels and cropping. Analysis was carried out by an observer blinded to the experimental conditions.

The test system of assay [1] is SH-SY5Y cells expressing the Canton variant. The experiment in a line: Viability of SH-SY5Y cells expressing Canton variant. In kind it is cell-based, human. How it is done:
Prior to the cellular-based assays using SH-SH5Y cells, duration of overexpression of WT G6PD and Canton variant was examined by transfecting the cells seeded in a 12-well plate. The genes encoding human WT G6PD and Canton variant were first PCR-amplified, which was then inserted into pcDNA 3.1/myc-His C (ThermoFisher Scientific) using HindIII and XhoI. 0.5 μg of cDNA and 1.5 μg of lipofectamine (Invitrogen) were diluted in 50 μL of Opti-MEM medium respectively and incubated for 5 minutes. The diluted DNA was combined with diluted lipofectamine, which was followed by incubation for 20 minutes prior to the addition to cells.
Cell viability was measured using a Cell-Counting Kit-8 (CCK-8, Dojindo), utilizing WST-8 [2-(2-methoxy-4-nitrophenyl)-3-(4-nitrophenyl)-5-(2,4-disulfophenyl)-2H-tetrazolium monosodium salt, according to the manufacturer's instructions. Cells were subjected to serum starvation for 48 hours before measurement. Cells in 100 μL of medium per well were treated with 10 μL of CCK-8 solution and incubated for 2 hours at 37° C. The absorbance was read at 450 nm. Viability of lymphocytes was measured by staining with a 0.4% solution of trypan blue in buffered isotonic salt solution (pH 7.2). The viability was calculated as the number of viable cells (non-stained by the dye) divided by the total number of cells within the grids on the hemacytometer. […]

In a further assay the test system is human erythrocytes. The assay can be described thus: ROS levels in erythrocytes under oxidative stressors. In kind it is cell-based. Conditions: drug-induced oxidative stress. How it is done:
De-identified blood samples were obtained from the Stanford Blood Center. Erythrocytes were collected by filtering the samples through a cellulose slurry to remove platelets and leukocytes and then washed with saline. G6PD activity was measured (Beutler E. Red cell metabolism: A manual of biochemical methods (3rd edition). Grune & Stratton (1984)). […] A 5% erythrocyte suspension was pre-incubated with 1-5 μM AG1 at 4° C. overnight, which was followed by treatment with (or without) either 1 mM chloroquine (CQ) or 1 mM diamide for 3-4 hours at 37° C. (for hemolysis assay with chloroquine, the mixture was incubated under light). Then centrifugation at 1,000 rpm for 5 minutes was followed. Hemoglobin release in the supernatant was monitored by measuring absorbance at 540 nm. […] After wash, the samples were lysed with 0.1% Triton X-100 (final concentration), and the florescence was analyzed with excitation/emission at 485/525 nm. GSH measurement was determined using a Cayman glutathione assay kit (Cayman Chemicals, 703002). […] The absorbance was read at 412 nm. For storage assay, a 5% erythrocyte suspension was stored at 4° C. with and without 1 μM AG1, and hemolysis and G6PD activity were monitored every week for 28 days to examine whether AG1 improves preservation of erythrocytes over time. Protein leakage was also examined by measuring the absorbance of the supernatant of samples at 280 nm. […]

As to `SCCNCCc1c[nH]c2ccccc12` [AG1, 2-[2-(1H-indol-3-yl)ethylamino]ethanethiol], the “embryos exhibiting pericardial edema” value in the assay with zebrafish embryos (chloroquine 50 μg/ml) is on record as “less embryos exhibiting pericardial edema”. The “pericardial edema due to mesoderm defects” value with zebrafish embryos (tbx16 mutants) is “not corrected”. Further, the viability result in assay [1] is reported as “mild increase”. For the same compound, the ROS levels entry with human erythrocytes is listed as “reduced”.
